Source: PMC6522524 (Nature Communications, 2019)
Values joined by “and” are separate entries in the source; they are usually repeats but may differ in a detail not shown here. Equal entries are not always repeated. Where two headings read alike, the source gives them in different places.

What was measured:
[1] = test system: total HBV core protein in Huh-7 cells; assay type: cell-based, Hepatitis B virus; conditions: for Relative Core mRNA level(Folds), individual samples: Sample1-3
Procedure: the indicated times. The cells were lysed and assembled HBV core particles were isolated by sucrose step-gradient ultracentrifugation, resolved on 1 % agarose gels, and subjected to immunoblot analysis with anti-HBV core antibody. Total intracellular HBV core protein was also determined by immunoblot analysis in the cell lysates. Core mRNA levels were measured by quantitative RT-PCR. The data

[2] = biological target: T1, Cp149 (truncated HBV core protein) (Hepatitis B virus genotype D subtype ayw, UniProt P03146); assay: biochemical
T1 construct: Cp149 (amino acids 1–149) is a truncated form of the HBV core protein; made in house; host or cells: Escherichia coli
T1 sequence (P03146 1-149): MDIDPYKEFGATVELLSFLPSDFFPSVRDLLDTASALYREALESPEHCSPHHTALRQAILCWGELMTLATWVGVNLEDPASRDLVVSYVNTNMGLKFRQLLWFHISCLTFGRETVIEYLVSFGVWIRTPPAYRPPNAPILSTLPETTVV

## GLS-4
[1]; 1.5day, 0.1 μM
  Relative Core mRNA level(Folds), AVERAGE: 0.9973 Folds
  Relative Core mRNA level(Folds), individual samples: 1.007 Folds and 1.003 Folds and 0.9824 Folds
[1]; 1.5day, 0.5 μM
  Relative Core mRNA level(Folds), AVERAGE: 1.0017 Folds
  Relative Core mRNA level(Folds), individual samples: 0.9742 Folds and 0.987 Folds and 1.044 Folds
[1]; 1.5day, 1 μM
  Relative Core mRNA level(Folds), AVERAGE: 0.9997 Folds
  Relative Core mRNA level(Folds), individual samples: 1.008 Folds and 0.9861 Folds and 1.005 Folds
[1]; 1.5day, 5 μM
  Relative Core mRNA level(Folds), AVERAGE: 1.008 Folds
  Relative Core mRNA level(Folds), individual samples: 1.002 Folds and 0.9963 Folds and 1.025 Folds
[1]; 1.5day, 10 μM
  Relative Core mRNA level(Folds), AVERAGE: 0.9997 Folds
  Relative Core mRNA level(Folds), individual samples: 0.9972 Folds and 0.9916 Folds and 1.01 Folds
[1]; 2.5day, 0.1 μM
  Relative Core mRNA level(Folds), AVERAGE: 0.9923 Folds
  Relative Core mRNA level(Folds), individual samples: 1.007 Folds and 0.9944 Folds and 0.976 Folds
[1]; 2.5day, 0.5 μM
  Relative Core mRNA level(Folds), AVERAGE: 0.9898 Folds
  Relative Core mRNA level(Folds), individual samples: 1 Folds and 0.9926 Folds and 0.9769 Folds
[1]; 2.5day, 1 μM
  Relative Core mRNA level(Folds), AVERAGE: 0.9998 Folds
  Relative Core mRNA level(Folds), individual samples: 1.0179 Folds and 1.005 Folds and 0.9769 Folds
[1]; 2.5day, 5 μM
  Relative Core mRNA level(Folds), AVERAGE: 0.9873 Folds
  Relative Core mRNA level(Folds), individual samples: 0.9861 Folds and 0.9889 Folds and 0.987 Folds
[1]; 2.5day, 10 μM
  Relative Core mRNA level(Folds), AVERAGE: 1.003 Folds
  Relative Core mRNA level(Folds), individual samples: 1.007 Folds and 1.001 Folds
[1]; 4.5day, 0.1 μM
  Relative Core mRNA level(Folds), AVERAGE: 0.9929 Folds
  Relative Core mRNA level(Folds), individual samples: 1.007 Folds and 0.9944 Folds and 0.9778 Folds
[1]; 4.5day, 0.5 μM
  Relative Core mRNA level(Folds), AVERAGE: 0.9886 Folds
  Relative Core mRNA level(Folds), individual samples: 1 Folds and 0.9889 Folds and 0.9769 Folds
[1]; 4.5day, 1 μM
  Relative Core mRNA level(Folds), AVERAGE: 0.9986 Folds
  Relative Core mRNA level(Folds), individual samples: 1.0179 Folds and 1.001 Folds and 0.9769 Folds
[1]; 4.5day, 5 μM
  Relative Core mRNA level(Folds), AVERAGE: 0.9904 Folds
  Relative Core mRNA level(Folds), individual samples: 0.9861 Folds and 0.9981 Folds and 0.987 Folds
[1]; 4.5day, 10 μM
  Relative Core mRNA level(Folds), AVERAGE: 0.9982 Folds
  Relative Core mRNA level(Folds), individual samples: 1.007 Folds and 0.9916 Folds and 0.9963 Folds
[1]; treatment time increased
  total core protein: decreased
[2]
  Relative intensity (Folds), in vitro core assembly, individual samples: 1.0339 Folds and 1.019 Folds and 0.9819 Folds and 1.079 Folds and 1.058 Folds and 1.102 Folds and 0.3491 Folds and 0.342 Folds and 0.3462 Folds and 0.1267 Folds and 0.1171 Folds and 0.123 Folds and 0.01326 Folds and 0.01176 Folds and 0.01165 Folds and 0 Folds (6×)
